4 compounds from US9365499B2, “9-aminomethyl substituted tetracycline compounds” (KBP Biosciences Co., Ltd., priority 2011, dated 2016) can be followed below.

Each structure is given as a SMILES string. ≈ marks a conversion by molar mass, not a printed value. Like-named read-outs stand apart in the source and are kept apart here.

One data set relates to Acinetobacter baumannii. Kind of data set: antibacterial activity in vitro, agar dilution method. The format is cell-based. The text has this:
(§1) The antibacterial spectrum and in vitro antibacterial activity of the compound of the present invention
(§2) Experimental method: the agar dilution method, with reference to Clinical And Laboratory Standards Institute. Methods for Dilution Antimicrobial Susceptibility Tests for Bacteria That Grow Aerobically; Approved Standard-Seventh Edition. CLSI Document M7-A7. Vol 26, no. 2, Wayne, Pa.: Clinical and Laboratory Standards Institute, 2006.
(§3) Wherein MIC represents the minimum inhibitory concentration, MIC90 represents the 90% inhibitory concentration.
On the technique in general: In agar dilution, organisms are placed on agar that contains the substance at set levels.

The next data set has as its system Streptococcus pyogenes. The data set is described as above. The format is cell-based. The conditions noted are these: Table 2.
Text: as §1, §2, §3

A further data set relates to Escherichia coli. Described as above. The format is cell-based.
Text: as §1, §2, §3

The test system of data set [1] is Methicillin-resistant Staphylococcus aureus (MRSA). The data set is described as above. Type of data set: cell-based.
Text: as §1, §2, §3

A further data set concerns Klebsiella pneumoniae. The data set is described as above. Type of data set: cell-based.
Text: as §1, §2, §3

The test system of data set [2] is Methicillin-resistant Staphycoccus epidermidis (MRSE). Described as above. Type of data set: cell-based. The conditions noted are these: Staphylococcus epidermidis.
Text: as §1, §2, §3

A further data set can be described thus: in vivo. Also on record: species or system male SD rats. The conditions noted are these: male, SD, rat, 5 mg/kg. The protocol:
Test animals: male SD rats, weighing 180-280 g, purchased from Beijing Vital River Laboratory Animal Technology Co., Ltd.; animal Certificate of Conformity: SCXK (Beijing) 2006-0009. Six rats were tested for each compound. the compounds of the present invention, prepared in accordance with the methods of above Examples, dissolved in physiological saline. tigecycline, dissolved in physiological saline. Administration of the compounds of the present invention: intravenous bolus injection (iv), dose: 5 mg/kg, administrating volume: 5 mL/kg; gavage (po), dose: 5 mg/kg, administrating volume: 5 mL/kg. Administration of tigecycline: gavage (po), dose: 10 mg/kg, administrating volume: 5 mL/kg. Prior to administration help but water fasting for 16 hours, 4 hours after administration to food. Compound 9: iv blood sampling time point: denoted by 0 min before administration, 5 min, 15 min, 30 min, 1 […] after administration; po blood sampling time point: denoted by 0 min before administration, 5 min, 15 min, 30 min, 1 […] after administration; Compound 20: iv blood sampling time point: 5 min, 15 min, 30 min, 1 […] after administration; po blood sampling time point: 10 min, 30 min, 1 […] after administration; Compound 23: iv blood sampling time point: denoted by 0 min before administration, 5 min, 15 min, 30 min, 1 […] after administration; po blood sampling time point: denoted by 0 min before administration, 5 min, 15 min, 30 min, 1 […] after administration; Tigecycline: iv blood sampling time point: 5 min, 15 min, 30 min, 1 h, 2 h, 4 h, 6 h, 8 h after administration; po blood sampling time point: 10 min, 30 min, 1 […] after administration. Each time point is taken around 100 μl whole blood and placed in a heparinized tube, centrifugated at 8000 rpm/min at 4° C. for 6 minutes in a low-temperature high-speed centrifuge to separate plasma, the resulting plasma was frozen at -80° C. refrigerator. Plasma samples analysis: 20 μl of plasma was taken and added 200 μl of internal standard solution, subjected to vortex for 3 minutes, then to centrifugation at 12,000 rpm/min for 5 minutes. 100 μl of supernatant was taken and analyzed using LC-MS/MS. Formula Absolute Bioavailability F%=[AUC](po)×Dose(iv)/[AUC](iv)×Dose(po)

Another data set relates to Klebsiella oxytoca. The experiment in a line: antibacterial activity in vitro, agar dilution method. The format is cell-based. The conditions noted are these: Table 3.
Text: as §1, §2, §3

The mark [3] stands for this setting: Table 2, agar dilution, read-out: antibacterial activity MIC, Acinetbacter baumannii.
Setting [4] is: Table 3, agar dilution, read-out: antibacterial activity MIC, Acinetobacter baumannii.

In the case of `CN(C)c1cc(CNC2CC3(CC3)C2)c(O)c2c1C[C@H]1C[C@H]3[C@H](N(C)C)C(O)=C(C(N)=O)C(=O)[C@@]3(O)C(O)=C1C2=O` [Compound 3, (4S,4aS,5aR,12aS)-9-((spiro[2.3]hexan-5-ylamino)methyl)-4,7-bis(dimethylamino)-3,10,12,12a-tetrahydroxy-1,1′-dioxo-1,4,4a,5,5a,6,11,12a-octahydrotetracene-2-carboxamide], the minimal inhibitory concentration (MIC) came out at 4 µg/mL (≈ 7.06 µM) in the data set on Acinetobacter baumannii (setting [3]); 0.06 µg/mL (≈ 0.106 µM) against Streptococcus pyogenes; 1 µg/mL (≈ 1.76 µM) in the data set with Escherichia coli (Table 2); 0.5 µg/mL (≈ 0.882 µM) in data set [1] (Table 2, agar dilution); 2 µg/mL (≈ 3.53 µM) in the data set on Klebsiella pneumoniae (Table 2); 0.5 µg/mL (≈ 0.882 µM) in data set [2] (Table 2).

In “in vivo” (iv), `CN(C)c1cc(CN2CC3(CCC3)C2)c(O)c2c1C[C@H]1C[C@H]3[C@H](N(C)C)C(O)=C(C(N)=O)C(=O)[C@@]3(O)C(O)=C1C2=O` [Compound 9, (4S,4aS,5aR,12aS)-9-(2-azaspiro[3.3]heptan-2-ylmethyl)-4,7-bis(dimethylamino)-3,10,12,12a-tetrahydroxy-1,1′-dioxo-1,4,4a,5,5a,6,11,12a-octahydrotetracene-2-carboxamide] showed an AUC(0-t) of 6070 ng·h/mL, a Vd of 4.65 L/kg, a clearance of 13.3 mL/min/kg and a half-life of 5.85 h. Also, in the data set “in vivo” (po), the area under the curve AUC(0-t) was 216 ng·h/mL, the highest level (Cmax) was 35.6 ng/mL, the time to peak (Tmax) was 1 h and the bioavailability was 3.56%. Further, the minimum inhibitory concentration (MIC) in the data set on Acinetobacter baumannii (setting [4]) was 4 µg/mL (≈ 7.06 µM). In the data set on Escherichia coli (Table 3), the minimum inhibitory concentration (MIC) was 0.5 µg/mL (≈ 0.882 µM). The MIC in data set [1] (Table 3, agar dilution) came to 0.5 µg/mL (≈ 0.882 µM). The same compound returned a minimal inhibitory concentration (MIC) against Klebsiella pneumoniae (Table 3) of 1 µg/mL (≈ 1.76 µM). Besides, 0.5 µg/mL (≈ 0.882 µM) was the least that counted as inhibitory in data set [2] (Table 3) (MIC). In the data set on Klebsiella oxytoca, this compound returned a minimum inhibitory concentration (MIC) of 1 µg/mL (≈ 1.76 µM).

For the compound `CN(C)c1cc(CNCC2CC(F)(F)C2)c(O)c2c1C[C@H]1C[C@H]3[C@H](N(C)C)C(O)=C(C(N)=O)C(=O)[C@@]3(O)C(O)=C1C2=O` [Compound 10, (4S,4aS,5aR,12aS)-9-(((3,3-difluorocyclobutyl)methylamino)methyl)-4,7-bis(dimethylamino)-3,10,12,12a-tetrahydroxy-1,11-dioxo-1,4,4a,5,5a,6,11,12a-octahydrotetracene-2-carboxamide], the MIC in the data set on Acinetobacter baumannii (setting [3]) came out at 4 µg/mL (≈ 6.77 µM); in the data set on Streptococcus pyogenes, 0.125 µg/mL (≈ 0.212 µM); in the data set on Escherichia coli (Table 2) it was 1 µg/mL (≈ 1.69 µM); in data set [1] (Table 2, agar dilution), 1 µg/mL (≈ 1.69 µM); in the data set with Klebsiella pneumoniae (Table 2), 2 µg/mL (≈ 3.39 µM); in data set [2] (Table 2), 0.5 µg/mL (≈ 0.847 µM).

In “in vivo” (iv), `CN(C)c1cc(CN2CCC3(CC2)CC3)c(O)c2c1C[C@H]1C[C@H]3[C@H](N(C)C)C(O)=C(C(N)=O)C(=O)[C@@]3(O)C(O)=C1C2=O` [Compound 20, (4S,4aS,5aR,12aS)-9-(6-azaspiro[2.5]octan-6-ylmethyl)-4,7-bis(dimethylamino)-3,10,12,12a-tetrahydroxy-1,1′-dioxo-1,4,4a,5,5a,6,11,12a-octahydrotetracene-2-carboxamide] showed an exposure AUC(0-t) of 11600 ng·h/mL, a Vd of 2.22 L/kg, a clearance of 7.33 mL/min/kg and a half-life of 4.98 h. Further, in the data set “in vivo” (po), the AUC(0-t) was 605 ng·h/mL, the highest level (Cmax) was 116 ng/mL, the Tmax came out at 2 h and the bioavailability is 5.22%. In the data set with Acinetobacter baumannii (setting [4]), the MIC was 1 µg/mL (≈ 1.72 µM). In the data set with Escherichia coli (Table 3), this compound displayed an MIC of 0.5 µg/mL (≈ 0.861 µM). Also, the minimum inhibitory concentration (MIC) in data set [1] (Table 3, agar dilution) was 0.5 µg/mL (≈ 0.861 µM). The same compound returned a minimum inhibitory concentration (MIC) in the data set on Klebsiella pneumoniae (Table 3) of 2 µg/mL (≈ 3.44 µM). This compound showed a minimal inhibitory concentration (MIC) in data set [2] (Table 3) of 1 µg/mL (≈ 1.72 µM). The minimal inhibitory concentration (MIC) in the data set on Klebsiella oxytoca is 1 µg/mL (≈ 1.72 µM).

By MIC is commonly meant the lowest concentration found to suppress growth. The AUC(0-t) is the area under the concentration-time curve up to a stated or last time point. Low readings indicate less exposure, high ones more exposure. The term Vd denotes the apparent volume that relates the amount in the body to the concentration in plasma or blood. Low readings indicate little distribution into tissue, high ones wide distribution into tissue. In general, clearance refers to a measure of how efficiently the substance is removed, as volume per time. As a reminder, the half-life is the time needed for the level to fall by half in the phase considered. A lower half-life goes with rapid decline. For orientation: Cmax means the peak of the concentration-time curve. Usually Tmax stands for the time from dosing to the highest level. As usually defined, the bioavailability is dose-corrected exposure relative to a reference, in per cent. A higher bioavailability goes with much systemic uptake.
